Experimental data from PubChem BioAssay (NCI).
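Cultured in 96-well plates, cells were exposed to test compound for 48 hours across five concentrations. TGI: concentration producing complete growth inhibition.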

Columns and labels:
Assay in all cases: NCI tumour cell line growth inhibition, 48 h
[1] = system: UACC-62 melanoma
[2] = system: OVCAR-4 ovarian
[3] = system: MALME-3M melanoma
[4] = system: SK-MEL-5 melanoma
[5] = system: LOX IMVI melanoma
[6] = system: HOP-62 NSCLC
[7] = system: K-562 leukemia
[8] = system: A498 renal
[9] = system: UACC-257 melanoma
[10] = system: SK-OV-3 ovarian
[11] = system: NCI-H23 lung
[12] = system: OVCAR-5 ovarian
[13] = system: KM12 colon
[14] = system: HCT-116 colon
[15] = system: CCRF-CEM leukemia
[16] = system: A549 NSCLC
[17] = system: SN12C renal
[18] = system: MOLT-4 leukemia
[19] = system: OVCAR-8 ovarian
[20] = system: SF-295 CNS
[21] = system: HCC-2998 colon
[22] = system: SNB-19 CNS
[23] = system: SF-539 CNS
[24] = system: MDA-MB-231 breast
[25] = system: RXF 393 renal
[26] = system: TK-10 renal
[27] = system: HCT-15 colon
[28] = system: U251 CNS
[29] = system: RPMI-8226 leukemia
[30] = system: OVCAR-3 ovarian
[31] = system: NCI-H522 lung
[32] = system: NCI/ADR-RES ovarian
[33] = system: HOP-92 NSCLC
[34] = system: ACHN renal
[35] = system: UO-31 renal
[36] = system: NCI-H460 lung
[37] = system: SF-268 CNS
[38] = system: HL-60(TB) leukemia
[39] = system: MDA-N
[40] = system: SNB-75 CNS
[41] = system: IGROV1 ovarian
[42] = system: T-47D breast
[43] = system: 786-0 renal
[44] = system: COLO 205 colon
[45] = system: SW-620 colon
[46] = system: MDA-MB-435
[47] = system: HT29 colon
[48] = system: BT-549 breast
[49] = system: MCF7 breast
[50] = system: SK-MEL-28 melanoma
[51] = system: DU-145 prostate
[52] = system: CAKI-1 renal
[53] = system: HS 578T breast
[54] = system: PC-3 prostate
[55] = system: NCI-H226 lung
[56] = system: SR leukemia
[57] = system: SK-MEL-2 melanoma
[58] = system: EKVX NSCLC
[59] = system: M14 melanoma

CC(C)(C)OC(=O)NCC(=O)NC1CC=CCC1NC(=O)CNC(=O)OC(C)(C)C (stereo not drawn)
TGI [1]: > 100 µM
TGI [2]: > 100 µM
TGI [3]: > 100 µM
TGI [4]: > 100 µM
TGI [5]: > 100 µM
TGI [6]: > 100 µM
TGI [7]: > 100 µM
TGI [8]: > 100 µM
TGI [9]: > 100 µM
TGI [10]: > 100 µM
TGI [11]: > 100 µM
TGI [12]: > 100 µM
TGI [13]: > 100 µM
TGI [14]: > 100 µM
TGI [15]: > 100 µM
TGI [16]: > 100 µM
TGI [17]: > 100 µM
TGI [18]: > 100 µM
TGI [19]: > 100 µM
TGI [20]: > 100 µM
TGI [21]: > 100 µM
TGI [22]: > 100 µM
TGI [23]: > 100 µM
TGI [24]: > 100 µM
TGI [25]: > 100 µM
TGI [26]: > 100 µM
TGI [27]: > 100 µM
TGI [28]: > 100 µM
TGI [29]: > 100 µM
TGI [30]: > 100 µM
TGI [31]: > 100 µM
TGI [32]: > 100 µM
TGI [33]: > 100 µM
TGI [34]: > 100 µM
TGI [35]: > 100 µM
TGI [36]: > 100 µM
TGI [37]: > 100 µM
TGI [38]: > 100 µM
TGI [39]: > 100 µM
TGI [40]: > 100 µM
TGI [41]: > 100 µM
TGI [42]: > 100 µM
TGI [43]: > 100 µM
TGI [44]: > 100 µM
TGI [45]: > 100 µM
TGI [46]: > 100 µM
TGI [47]: > 100 µM
TGI [48]: > 100 µM
TGI [49]: > 100 µM
TGI [50]: > 100 µM
TGI [51]: > 100 µM
TGI [52]: > 100 µM
TGI [53]: > 100 µM
TGI [54]: > 100 µM
TGI [55]: > 100 µM
TGI [56]: > 100 µM

CCCCCCCCCCCCCCCCOCC(Cl)CP(=O)(O)OP(=O)(O)OCC1OC(n2cnc3c(N)ncnc32)C(O)C1O (stereo not drawn)
TGI [1]: > 100 µM
TGI [2]: > 100 µM
TGI [3]: > 100 µM
TGI [4]: > 100 µM
TGI [5]: > 100 µM
TGI [6]: > 100 µM
TGI [7]: > 100 µM
TGI [8]: > 100 µM
TGI [9]: > 100 µM
TGI [10]: > 100 µM
TGI [11]: > 100 µM
TGI [12]: > 100 µM
TGI [13]: > 100 µM
TGI [14]: > 100 µM
TGI [15]: > 100 µM
TGI [16]: > 100 µM
TGI [17]: > 100 µM
TGI [18]: > 100 µM
TGI [19]: > 100 µM
TGI [21]: > 100 µM
TGI [22]: > 100 µM
TGI [23]: > 100 µM
TGI [24]: > 100 µM
TGI [25]: > 100 µM
TGI [26]: > 100 µM
TGI [27]: > 100 µM
TGI [28]: > 100 µM
TGI [30]: > 100 µM
TGI [31]: > 100 µM
TGI [32]: > 100 µM
TGI [57]: > 100 µM
TGI [33]: > 100 µM
TGI [34]: > 100 µM
TGI [35]: > 100 µM
TGI [58]: > 100 µM
TGI [36]: > 100 µM
TGI [37]: > 100 µM
TGI [38]: > 100 µM
TGI [39]: > 100 µM
TGI [40]: > 100 µM
TGI [41]: > 100 µM
TGI [59]: > 100 µM
TGI [42]: > 100 µM
TGI [43]: > 100 µM
TGI [44]: > 100 µM
TGI [45]: > 100 µM
TGI [46]: > 100 µM
TGI [47]: > 100 µM
TGI [48]: > 100 µM
TGI [49]: > 100 µM
TGI [50]: > 100 µM
TGI [51]: > 100 µM
TGI [52]: > 100 µM
TGI [53]: > 100 µM
TGI [54]: > 100 µM
TGI [55]: > 100 µM
TGI [56]: > 100 µM

CN(C)/C=N/S(=O)(=O)c1nn2c(C=O)c(-c3ccccc3)nc2s1
TGI [1]: 54.4 µM
TGI [2]: > 89.9 µM
TGI [3]: 35.6 µM
TGI [4]: 27.9 µM
TGI [5]: > 89 µM
TGI [6]: > 100 µM
TGI [7]: > 61.7 µM
TGI [8]: > 100 µM
TGI [9]: > 63.3 µM
TGI [10]: > 100 µM
TGI [11]: > 83 µM
TGI [12]: > 100 µM
TGI [13]: > 79.7 µM
TGI [14]: 13.1 µM
TGI [15]: 9.8 µM
TGI [16]: > 82.4 µM
TGI [17]: 49.7 µM
TGI [18]: 32.1 µM
TGI [19]: > 53.4 µM
TGI [20]: > 100 µM
TGI [21]: > 56.5 µM
TGI [22]: > 100 µM
TGI [23]: > 100 µM
TGI [24]: > 74.9 µM
TGI [25]: 49 µM
TGI [26]: > 77.1 µM
TGI [27]: 45.6 µM
TGI [28]: > 31.6 µM
TGI [29]: 42.9 µM
TGI [30]: 24.1 µM
TGI [31]: 15.8 µM
TGI [32]: > 76.6 µM
TGI [57]: > 100 µM
TGI [33]: > 100 µM
TGI [34]: 21.1 µM
TGI [35]: 19.5 µM
TGI [58]: > 100 µM
TGI [36]: > 51.4 µM
TGI [37]: > 100 µM
TGI [39]: 52.5 µM
TGI [40]: > 100 µM
TGI [59]: 14.8 µM
TGI [42]: 61.4 µM
TGI [43]: 21.3 µM
TGI [44]: > 38.6 µM
TGI [45]: 20.2 µM
TGI [46]: > 100 µM
TGI [47]: 4.58 µM
TGI [48]: > 26.4 µM
TGI [49]: > 100 µM
TGI [50]: 29.8 µM
TGI [51]: > 100 µM
TGI [52]: 8.68 µM
TGI [53]: > 100 µM
TGI [54]: > 89 µM
TGI [55]: > 57.4 µM
TGI [56]: 21.3 µM

COc1cccc(-c2nnc3c(-c4ccccc4)nc4ccccc4n23)c1
TGI [1]: > 100 µM
TGI [2]: > 100 µM
TGI [3]: > 83.7 µM
TGI [4]: 77.6 µM
TGI [5]: > 100 µM
TGI [6]: > 100 µM
TGI [7]: > 56.5 µM
TGI [8]: 93.4 µM
TGI [9]: > 100 µM
TGI [10]: > 100 µM
TGI [11]: > 100 µM
TGI [12]: > 100 µM
TGI [13]: > 43.7 µM
TGI [14]: > 100 µM
TGI [15]: 39.1 µM
TGI [16]: > 100 µM
TGI [17]: > 100 µM
TGI [18]: > 63.8 µM
TGI [19]: > 100 µM
TGI [20]: > 100 µM
TGI [21]: 62.7 µM
TGI [22]: > 100 µM
TGI [23]: > 100 µM
TGI [24]: > 100 µM
TGI [25]: 94.7 µM
TGI [26]: > 100 µM
TGI [27]: > 100 µM
TGI [28]: > 100 µM
TGI [29]: 26.4 µM
TGI [30]: > 100 µM
TGI [31]: 22.7 µM
TGI [32]: > 100 µM
TGI [57]: 44.3 µM
TGI [33]: > 100 µM
TGI [34]: > 100 µM
TGI [35]: > 100 µM
TGI [58]: > 100 µM
TGI [36]: 98.7 µM
TGI [37]: > 100 µM
TGI [38]: 34 µM
TGI [39]: 14.2 µM
TGI [41]: > 100 µM
TGI [59]: > 100 µM
TGI [42]: 17.3 µM
TGI [43]: > 100 µM
TGI [44]: > 100 µM
TGI [45]: > 100 µM
TGI [46]: 8.62 µM
TGI [47]: > 100 µM
TGI [48]: > 100 µM
TGI [49]: > 100 µM
TGI [50]: > 100 µM
TGI [51]: > 100 µM
TGI [52]: > 86.6 µM
TGI [53]: > 100 µM
TGI [54]: > 100 µM
TGI [55]: > 100 µM
TGI [56]: > 54.8 µM

CC[C@@]1(O)C(=O)OCc2c1cc1n(c2=O)Cc2c-1nc1ccccc1c2/C=N/NC(=O)C[N+](C)(C)C
TGI [1]: 3.66 µM
TGI [2]: > 100 µM
TGI [3]: > 100 µM
TGI [4]: 7.98 µM
TGI [5]: > 37.6 µM
TGI [7]: > 100 µM
TGI [8]: > 65.1 µM
TGI [9]: > 100 µM
TGI [10]: > 100 µM
TGI [11]: 6.27 µM
TGI [12]: > 100 µM
TGI [13]: > 100 µM
TGI [14]: > 100 µM
TGI [16]: > 100 µM
TGI [17]: > 100 µM
TGI [18]: 16.3 µM
TGI [19]: > 100 µM
TGI [20]: > 33.3 µM
TGI [21]: > 100 µM
TGI [22]: > 94.2 µM
TGI [23]: 2.61 µM
TGI [24]: > 100 µM
TGI [25]: 11.7 µM
TGI [26]: > 100 µM
TGI [27]: > 100 µM
TGI [28]: > 35.8 µM
TGI [29]: > 100 µM
TGI [30]: > 100 µM
TGI [31]: > 100 µM
TGI [32]: > 62.3 µM
TGI [57]: > 100 µM
TGI [33]: > 49.3 µM
TGI [35]: 9.72 µM
TGI [58]: > 100 µM
TGI [36]: 21.5 µM
TGI [37]: > 63 µM
TGI [39]: > 100 µM
TGI [40]: 9.74 µM
TGI [41]: > 100 µM
TGI [59]: 20.5 µM
TGI [42]: 30.4 µM
TGI [43]: > 55.7 µM
TGI [44]: > 100 µM
TGI [45]: > 100 µM
TGI [46]: > 100 µM
TGI [47]: > 100 µM
TGI [48]: > 100 µM
TGI [49]: > 100 µM
TGI [50]: > 100 µM
TGI [51]: 22 µM
TGI [52]: > 100 µM
TGI [53]: > 100 µM
TGI [54]: > 100 µM
TGI [55]: 31.8 µM
TGI [56]: 0.922 µM
